Experimental findings from patent US9770349B2, “Nanoporous stents with enhanced cellular adhesion and reduced neointimal formation” (University of Virginia Patent Foundation, priority 2002, dated 2017) are described below.

The series can be described thus: Rapamycin solubility in solvent. The format is physicochemical. The settings on record: 100% ethanol, organic solvent or mixture, in ethanol (100% ethanol).

≈ marks a conversion by molar mass, not a printed value.

Consider `CO[C@H]1C[C@@H]2CC[C@@H](C)[C@@](O)(O2)C(=O)C(=O)N2CCCC[C@H]2C(=O)O[C@H]([C@H](C)C[C@@H]2CC[C@@H](O)[C@H](OC)C2)CC(=O)[C@H](C)/C=C(\C)[C@@H](O)[C@@H](OC)C(=O)[C@H](C)C[C@H](C)/C=C/C=C/C=C/1C` [rapamycin], for which the solubility (as a rule, the dissolved amount per volume that the medium holds) was roughly 90 mg/mL (≈ 98.4 mM).
